According to patent US10577363B2, “Substituted piperidine compounds” (EPIZYME, INC., priority 2014, dated 2020):

biological target: SMYD3 (Homo sapiens (Human), UniProt Q9H7B4); test: SMYD3 biochemical assay (SPA, 3H-SAM methylation of MEKK2 protein substrate); conditions: read-out: SMYD3 Biochem IC50 (μM)*
Procedure, shortened: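 Full-length native human SMYD3 (E. coli-expressed, tags removed) preincubated with compounds 30 min at room temperature, then reaction started with 3H-SAM and GST-tagged MEKK2 protein in 25 mM Tris-Cl pH 8.0, 1 mM TCEP, 0.005% BSG, 0.005% Tween 20. Quenched with unlabelled SAM (100 uM final); 3H-MEKK2 counted by SPA.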

Structure (SMILES)	IC50 [µM]
CCS(=O)(=O)N1CC[C@@H](NC(=O)c2cc(C3CC3)on2)C[C@@H]1C [compound 262, 5-cyclopropyl-N-((2S,4R)-1-(ethylsulfonyl)-2-methylpiperidin-4-yl)isoxazole-3-carboxamide]	> 10
C[C@@H]1CC(NC(=O)c2cc(C3CC3)on2)CCN1C(=O)CC1CCCC(N)C1 (stereo partly drawn) [compound 264, N-((2R)-1-(2-(3-aminocyclohexyl)acetyl)-2-methylpiperidin-4-yl)-5-cyclopropylisoxazole-3-carboxamide]	0.41
C[C@H]1C[C@H](NC(=O)c2cc(C3CC3)on2)CCN1C(=O)CC1(CN)CCCCC1 [compound 266, N-((2S,4R)-1-(2-(1-(aminomethyl)cyclohexyl)acetyl)-2-methylpiperidin-4-yl)-5-cyclopropylisoxazole-3-carboxamide]	> 10
C[C@@H]1C[C@@H](NC(=O)c2cc(C3CC3)on2)CCN1C(=O)CC1(CN)CCCCC1 [compound 267, N-((2R,4S)-1-(2-(1-(aminomethyl)cyclohexyl)acetyl)-2-methylpiperidin-4-yl)-5-cyclopropylisoxazole-3-carboxamide]	8.52
C[C@@H]1C[C@@H](NC(=O)c2cc(C3CC3)on2)CCN1C(=O)CC(C)(C)CN [compound 268, N-((2R,4S)-1-(4-amino-3,3-dimethylbutanoyl)-2-methylpiperidin-4-yl)-5-cyclopropylisoxazole-3-carboxamide]	3.15
C[C@H]1C[C@H](NC(=O)c2cc(C3CC3)on2)CCN1C(=O)CCCCN [compound 273, N-((2S,4R)-1-(5-aminopentanoyl)-2-methylpiperidin-4-yl)-5-cyclopropylisoxazole-3-carboxamide]	7.83
C[C@H]1C[C@@H](NC(=O)c2cc(C3CC3)on2)CCN1S(=O)(=O)C1CC1 [compound 276, 5-cyclopropyl-N-((2S,4S)-1-(cyclopropylsulfonyl)-2-methylpiperidin-4-yl)isoxazole-3-carboxamide]	3.63
C[C@H]1C[C@@H](NC(=O)c2cc(C3CC3)on2)CCN1S(=O)(=O)N1CCCC1 [compound 277, 5-cyclopropyl-N-((2S,4S)-2-methyl-1-(pyrrolidin-1-ylsulfonyl)piperidin-4-yl)isoxazole-3-carboxamide]	0.654
CNS(=O)(=O)N1CC[C@H](NC(=O)c2cc(C3CC3)on2)C[C@@H]1C [compound 278, 5-cyclopropyl-N-((2S,4S)-2-methyl-1-(N-methylsulfamoyl)piperidin-4-yl)isoxazole-3-carboxamide]	2.89
COC(=O)CCS(=O)(=O)N1CC[C@H](NC(=O)c2cc(C3CC3)on2)C[C@@H]1C [compound 280, methyl 3-(((2S,4S)-4-(5-cyclopropylisoxazole-3-carboxamido)-2-methylpiperidin-1-yl)sulfonyl)propanoate]	4.85
COCCCS(=O)(=O)N1CC[C@H](NC(=O)c2cc(C3CC3)on2)C[C@@H]1C [compound 281, 5-cyclopropyl-N-((2S,4S)-1-((3-methoxypropyl)sulfonyl)-2-methylpiperidin-4-yl)isoxazole-3-carboxamide]	1.87
COC(=O)CCS(=O)(=O)N1CC[C@H](NC(=O)c2cc(C3CC3)on2)C[C@H]1C [compound 282, methyl 3-(((2R,4S)-4-(5-cyclopropylisoxazole-3-carboxamido)-2-methylpiperidin-1-yl)sulfonyl)propanoate]	> 10
COCCCS(=O)(=O)N1CC[C@H](NC(=O)c2cc(C3CC3)on2)C[C@H]1C [compound 284, 5-cyclopropyl-N-((2R,4S)-1-((3-methoxypropyl)sulfonyl)-2-methylpiperidin-4-yl)isoxazole-3-carboxamide]	> 10
CC(C)OCCS(=O)(=O)N1CC[C@H](NC(=O)c2cc(C3CC3)on2)C[C@H]1C [compound 285, 5-cyclopropyl-N-((2R,4S)-1-((2-isopropoxyethyl)sulfonyl)-2-methylpiperidin-4-yl)isoxazole-3-carboxamide]	> 10
